Measured values as given in patent publication US20230203081A1, “LINCOSAMIDE ANTIBIOTICS AND USES THEREOF” (President and Fellows of Harvard College, priority 2020, published 2023).
Values after ≈ are worked out from the molar mass of the structure shown.

Assays:
Type in all cases: cell-based
A. baumannii ATCC 19606 = test: MIC (broth microdilution or agar dilution, CLSI); conditions: Acinetobacter baumannii, ATCC19606; A. baumanii HAV#010, ATCC 19606; read-out: MIC
Procedure, shortened: (§1)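 Per CLSI, MICs by broth microdilution or agar dilution; strains other than streptococci and anaerobes were sub-cultured overnight at 35° C on blood agar, with a final broth inoculum of 5×10^5 CFU/mL.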

[1] = tested on: broad panel of different clinical isolates; test: microbe, parasite or virus in culture
Procedure, shortened: as §1

E. faecium Line R & VRE = test: MIC (broth microdilution or agar dilution, CLSI); conditions: Enterococcus faecium, E. faecium HAV#319, Line R & Vanco R, read-out: MIC
Procedure, shortened: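 MICs were measured by CLSI broth microdilution or agar dilution over 128-0.06 μg/mL test compound at 2.5% final DMSO, in triplicate. Non-streptococcal, aerobic strains were grown overnight at 35° C on sheep blood agar, suspended in cation-adjusted Mueller-Hinton broth to 0.5 McFarland, and diluted to 5×10^5 CFU/mL.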

In the case of `CC[C@H]1OC(=O)[C@H](C)[C@@H](O[C@H]2C[C@@](C)(OC)[C@@H](O)[C@H](C)O2)[C@H](C)[C@@H](O[C@@H]2O[C@H](C)C[C@H](N(C)C)[C@H]2O)[C@](C)(O)C[C@@H](C)CN(C)[C@H](C)[C@@H](O)[C@]1(C)O` [Azithromycin], the MIC (A. baumannii ATCC 19606) is reported as 64 µg/mL (≈ 85.4 µM), the MIC ([1]; Enterococcus faecalis, E. faecalis HAV#602, Clincal) is reported as 4 µg/mL (≈ 5.34 µM) and the MIC ([1]; Enterococcus faecalis, E. faecalis HAV#607, Clinical) is reported as over 128 µg/mL. For the same molecule, the MIC ([1]; Enterococcus faecalis, E. faecalis HAV#608, Clinical) was over 128 µg/mL, the MIC ([1]; Enterococcus faecalis, E. faecalis HAV#609, Clinical) was over 128 µg/mL and the MIC ([1]; Enterococcus faecalis, E. faecalis HAV#610, Clinical) was over 128 µg/mL. For the same molecule, the MIC ([1]; Enterococcus faecalis, S. faecalis 5060, Line R & Vanco R) was over 256 µg/mL, the MIC ([1]; Enterococcus faecalis, S. faecalis 5074, Line R) was 4 µg/mL (≈ 5.34 µM) and the MIC ([1]; Enterococcus faecalis, VRE, E. faecalis HAV#251, Clinical VRE) was over 64 µg/mL. It also gave an MIC ([1]; Enterococcus faecalis, VRE, E. faecalis HAV#606, Clinical) of over 128 µg/mL, an MIC ([1]; Enterococcus faecium, E. faecium HAV#317, Clinical) of 8 µg/mL (≈ 10.7 µM) and an MIC ([1]; Enterococcus faecium, E. faecium HAV#324, Clinical) of over 128 µg/mL. The MIC ([1]; Enterococcus faecium, E. faecium HAV#327, Clinical) was over 128 µg/mL, the MIC ([1]; Enterococcus faecium, E. faecium HAV#328, Clinical) was over 128 µg/mL and the MIC ([1]; Enterococcus faecium, E. faecium HAV#329, Clinical) was over 128 µg/mL. For the same molecule, the MIC ([1]; Enterococcus faecium, VRE, E. faecium HAV#318, VanA) was over 64 µg/mL, the MIC ([1]; Enterococcus faecium, VRE, E. faecium HAV#320, Clinical) was over 128 µg/mL and the MIC ([1]; Escherichia coli, E. coli HAV#501, Clinical) was 64 µg/mL (≈ 85.4 µM). The MIC ([1]; Escherichia coli, E. coli HAV#503, Clinical) was 8 µg/mL (≈ 10.7 µM), the MIC ([1]; Escherichia coli, E. coli HAV#511, Clinical) was 4 µg/mL (≈ 5.34 µM) and the MIC ([1]; Escherichia coli, E. coli HAV#512, Clinical) was 8 µg/mL (≈ 10.7 µM). For the same molecule, the MIC ([1]; Escherichia coli, E. coli HAV#513, Clinical) was 8 µg/mL (≈ 10.7 µM), the MIC ([1]; Escherichia coli, E. coli HAV#514, Clinical) was 8 µg/mL (≈ 10.7 µM) and the MIC ([1]; Escherichia coli, E. coli HAV#516, ESBL-producing) was 4 µg/mL (≈ 5.34 µM). It also gave an MIC ([1]; Haemophilus influenzae, ATCC9007, H. influenzae HAV#376, ATCC-9007) of 2 µg/mL (≈ 2.67 µM), an MIC ([1]; Klebsiella pneumoniae, K. pneumoniae HAV#041, Clinical, KPC) of over 64 µg/mL and an MIC ([1]; Klebsiella pneumoniae, K. pneumoniae HAV#404, Clinical) of 8 µg/mL (≈ 10.7 µM). It also gave an MIC ([1]; Klebsiella pneumoniae, K. pneumoniae HAV#405, Clinical) of 8 µg/mL (≈ 10.7 µM), an MIC ([1]; Staphylococcus aureus, MRSA, S. aureus HAV#017, MRSA Col(Colindale, England)) of 1 µg/mL (≈ 1.34 µM) and an MIC ([1]; Staphylococcus aureus, MRSA, S. aureus HAV#218, Line R) of over 64 µg/mL. For the same molecule, the MIC ([1]; Staphylococcus aureus, MRSA, S. aureus HAV#220, Line R) was over 64 µg/mL, the MIC ([1]; Staphylococcus aureus, MSSA, S. aureus HAV#219, Line R) was over 64 µg/mL and the MIC ([1]; Staphylococcus aureus, S. aureus HAV#051, mecA, norA, spcl, ermA, aad1, aac6′-aph2″) was 2 µg/mL (≈ 2.67 µM). The MIC ([1]; Staphylococcus aureus, S. aureus HAV#052, mecA, norA, fosB, blaZ) was 2 µg/mL (≈ 2.67 µM), the MIC ([1]; Staphylococcus aureus, S. aureus HAV#053 mecA, norA, fosB) was 2 µg/mL (≈ 2.67 µM) and the MIC ([1]; Staphylococcus aureus, S. aureus HAV#054, mecA, norA, spcl, aad1, fosB, ermA, aac6′-aph2″, blaZ) was over 256 µg/mL. For the same molecule, the MIC ([1]; Staphylococcus aureus, S. aureus HAV#211, Clinical) was over 64 µg/mL, the MIC ([1]; Staphylococcus aureus, S. aureus HAV#212, Clinical) was 1 µg/mL (≈ 1.34 µM) and the MIC ([1]; Staphylococcus aureus, S. aureus HAV#213, Clinical) was 0.25 µg/mL (≈ 0.334 µM). The MIC ([1]; Staphylococcus aureus, S. aureus HAV#214, Clinical) was 0.25 µg/mL (≈ 0.334 µM), the MIC ([1]; Staphylococcus aureus, S. aureus HAV#215, Clinical) was 0.25 µg/mL (≈ 0.334 µM) and the MIC ([1]; Staphylococcus aureus, S. aureus HAV#216, Clinical, cfr) was over 128 µg/mL. It also gave an MIC ([1]; Staphylococcus aureus, S. aureus HAV#217, cfr) of over 128 µg/mL, an MIC ([1]; Staphylococcus aureus, VISA, S. aureus HAV#203, Clinical (VISA)) of over 64 µg/mL and an MIC ([1]; Staphylococcus epidermidis, S. epidermidis HAV# 275 Clinical, cfr) of 32 µg/mL (≈ 42.7 µM). The MIC ([1]; Staphylococcus epidermidis, S. epidermidis HAV# 276, cfr) was over 64 µg/mL, the MIC ([1]; Staphylococcus epidermidis, S. epidermidis HAV#277, Line R) was over 64 µg/mL and the MIC ([1]; Staphylococcus epidermidis, S. epidermidis HAV#278 Line R) was over 64 µg/mL. The MIC ([1]; Staphylococcus epidermidis, S. epidermidis HAV#279, Line R) was over 64 µg/mL, the MIC ([1]; Staphylococcus haemolyticus, S. haemolyticus 5052, Line R & Methicillin R) was over 256 µg/mL and the MIC ([1]; Streptococcus pneumoniae, ATCC700673, S. pneumoniae HAV#352, ATCC 700673, MDR) was over 64 µg/mL. For the same molecule, the MIC ([1]; Streptococcus pneumoniae, ATCCBAA255, S. pneumoniae HAV#354, ATCC-BAA-255) was 2 µg/mL (≈ 2.67 µM), the MIC ([1]; Streptococcus pneumoniae, ATCCBAA334, S. pneumoniae HAV#353, ATCC-BAA-334) was 1 µg/mL (≈ 1.34 µM) and the MIC ([1]; Streptococcus pneumoniae, S. pneumoniae HAV#356, Clinical) was over 64 µg/mL. The MIC ([1]; Streptococcus pneumoniae, S. pneumoniae HAV#358, Clinical) was 2 µg/mL (≈ 2.67 µM) and the MIC (E. faecium Line R & VRE) was 8 µg/mL (≈ 10.7 µM).
